# Source: patent publication US20250170099A1, “TREATMENT OF POSTNATAL DEPRESSION” (GH RESEARCH IRELAND LIMITED, priority 2022, published 2025)
# Test: Pharmacokinetics of 5-MeO-DMT and bufotenine after inhalation
# Type: in vivo, human
# Conditions: within 1 to 4 hours
smiles,measurement,value
COc1ccc2[nH]cc(CCN(C)C)c2c1 [5-MeO-DMT],accumulation upon repeated administration,No accumulation
